From publication PMC2843925 (ACS chemical neuroscience, 2010)

Assays:
hSERT [1] = target: T1, hSERT (Homo sapiens, UniProt P31645); test: [3H]-serotonin uptake inhibition, HEK-hSERT cells; format: cell-based; conditions: read-out: [3H]-Serotonin uptake IC50, mean ± SEM
hDAT [2] = target: T2, hDAT (Homo sapiens, UniProt Q01959); test: [3H]-dopamine uptake inhibition, HEK-hDAT cells; format: cell-based; conditions: switch to HEK cells
hDAT [3] = target: T2, hDAT; test: [3H]-dopamine uptake inhibition in hDAT N2A cells
hDAT [4] = target: T2, hDAT; test: [3H]-WIN 35,428 binding displacement in hDAT N2A cells; conditions: 10 μM, pre- or co-incubation
hDAT [5] = target: T2, hDAT; test: [125I]-RTI-55 binding, HEK-hDAT membranes; conditions: for Hill coefficient: [125I]-RTI-55 binding
hNET [6] = target: T3, hNET (Homo sapiens, UniProt P23975); format: cell-based
T3 sequence (P23975 whole entry): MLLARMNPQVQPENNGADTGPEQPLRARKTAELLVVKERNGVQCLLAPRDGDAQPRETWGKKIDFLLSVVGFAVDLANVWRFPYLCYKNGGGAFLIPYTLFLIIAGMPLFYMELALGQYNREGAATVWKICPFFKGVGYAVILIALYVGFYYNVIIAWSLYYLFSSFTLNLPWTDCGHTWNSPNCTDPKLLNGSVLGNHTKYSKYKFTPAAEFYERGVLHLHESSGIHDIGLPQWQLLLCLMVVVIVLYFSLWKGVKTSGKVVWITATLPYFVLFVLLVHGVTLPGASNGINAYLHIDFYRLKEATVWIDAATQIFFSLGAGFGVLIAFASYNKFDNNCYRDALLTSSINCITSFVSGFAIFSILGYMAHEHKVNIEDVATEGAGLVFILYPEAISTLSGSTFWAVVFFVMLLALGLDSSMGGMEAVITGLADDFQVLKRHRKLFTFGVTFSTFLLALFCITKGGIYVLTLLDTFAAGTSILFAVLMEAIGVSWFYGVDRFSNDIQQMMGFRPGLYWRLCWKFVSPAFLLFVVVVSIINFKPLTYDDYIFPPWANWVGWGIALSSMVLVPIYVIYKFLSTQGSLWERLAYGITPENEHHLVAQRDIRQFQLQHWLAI

[7] = ref [17]; cited from earlier work
hSERT [8] = target: T1, hSERT; test: [125I]-RTI-55 binding, HEK-hSERT membranes; conditions: for Hill coefficient: [125I]-RTI-55 binding
hNET [9] = target: T3, hNET; format: binding
DAT = conditions: known DAT ligands; ref Ukairo et al. ([12]); cited from earlier work

T1 sequence (P31645 whole entry): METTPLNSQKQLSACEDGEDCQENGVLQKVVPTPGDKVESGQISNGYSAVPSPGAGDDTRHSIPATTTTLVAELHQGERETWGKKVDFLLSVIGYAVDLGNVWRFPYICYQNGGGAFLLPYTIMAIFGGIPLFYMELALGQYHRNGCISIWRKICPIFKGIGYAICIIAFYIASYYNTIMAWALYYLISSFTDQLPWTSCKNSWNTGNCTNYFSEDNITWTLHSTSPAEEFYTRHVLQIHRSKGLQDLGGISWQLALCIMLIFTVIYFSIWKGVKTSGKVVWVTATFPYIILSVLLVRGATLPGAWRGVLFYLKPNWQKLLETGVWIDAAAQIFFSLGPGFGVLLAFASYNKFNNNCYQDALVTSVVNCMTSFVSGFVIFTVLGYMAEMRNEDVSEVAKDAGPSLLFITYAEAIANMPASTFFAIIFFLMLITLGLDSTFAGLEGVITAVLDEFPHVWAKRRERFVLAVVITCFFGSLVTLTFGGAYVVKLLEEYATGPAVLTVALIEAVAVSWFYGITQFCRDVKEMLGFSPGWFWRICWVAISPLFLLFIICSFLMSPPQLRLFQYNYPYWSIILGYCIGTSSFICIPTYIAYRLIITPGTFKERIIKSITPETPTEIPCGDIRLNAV
T2 sequence (Q01959 whole entry): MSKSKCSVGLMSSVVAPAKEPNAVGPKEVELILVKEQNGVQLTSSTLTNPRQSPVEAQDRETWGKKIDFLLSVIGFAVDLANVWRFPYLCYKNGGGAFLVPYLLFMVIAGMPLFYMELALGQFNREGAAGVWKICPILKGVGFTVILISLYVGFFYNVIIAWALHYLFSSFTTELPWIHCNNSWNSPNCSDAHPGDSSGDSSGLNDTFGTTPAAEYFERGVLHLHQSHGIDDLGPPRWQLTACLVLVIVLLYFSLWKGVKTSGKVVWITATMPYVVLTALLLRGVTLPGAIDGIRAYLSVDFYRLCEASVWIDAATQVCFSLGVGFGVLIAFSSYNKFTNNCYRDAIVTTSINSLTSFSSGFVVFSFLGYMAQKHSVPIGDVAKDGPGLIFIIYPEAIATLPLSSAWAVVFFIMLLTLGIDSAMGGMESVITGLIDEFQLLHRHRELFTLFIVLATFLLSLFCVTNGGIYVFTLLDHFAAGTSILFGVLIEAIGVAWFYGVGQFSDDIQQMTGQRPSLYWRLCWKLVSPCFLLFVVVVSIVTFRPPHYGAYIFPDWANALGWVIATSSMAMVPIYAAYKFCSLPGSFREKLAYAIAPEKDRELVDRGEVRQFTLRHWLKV

With `C[C@@H](CN1CCC(Cc2ccccc2)CC1)[C@@H](O)c1ccc(O)cc1.Cl` (relative stereo) [MI-4, [R-(R*, S*)]-α-(4-Hydroxyphenyl)-β-methyl-4-(phenylmethyl)-1-piperidinepropanol hydrochloride] the IC50 (hSERT [1]) was 0.79 ± 0.17 µM, the “DUIP increase, HEK vs N2A cells” value (hDAT [2]) was 4 fold and the “[3H]-dopamine uptake inhibition in screening assay” value (hDAT [3]; 10 μM) was “did not appreciably inhibit dopamine uptake”. The “Shift of cocaine DUIP IC50 by MI-4” value (hDAT [3]; 10 μM MI-4) was “approximately 3 fold”, the IC50 (hDAT [3]; read-out: Dopamine uptake inhibition potency (DUIP)) was 28 µM and the “Block of [3H]-WIN 35,428 binding in initial screen” value (hDAT [4]) was “able to block [^3H]-WIN 35,428 binding in a statistically significant fashion”. For the same compound, the “DAT affinity lower than that of cocaine” value (hDAT [5]; HEK-hDAT cells) was 20 fold, the Hill coefficient (hDAT [5]; HEK-hDAT cells) was -0.80 ± 0.10 and the Ki (hDAT [5]; read-out: [125I]-RTI-55 binding Ki, HEK-hDAT cells, mean ± SEM) was 3.46 ± 0.26 µM. The “DAT affinity increase, HEK vs N2A cells” value (hDAT [5]; switch to HEK cells) was ~2 fold, the “Substrate uptake inhibition potency at hNET greater than at hDAT” value (hNET [6]; HEK cells) was 3 – 4 fold and the IC50 (hNET [6]; read-out: [3H]-NE uptake IC50, HEK-hNET cells, mean ± SEM) was 2.09 ± 0.28 µM. The “Crosses the blood-brain barrier” value [7] was “crosses the blood-brain barrier”, the “Affinity at hSERT higher than at hDAT” value (hSERT [8]; HEK cells) was 5 fold and the Hill coefficient (hSERT [8]; HEK-hSERT cells) was -1.09 ± 0.04. The Ki (hSERT [8]; read-out: [125I]-RTI-55 binding Ki, HEK-hSERT cells, mean ± SEM) was 0.67 ± 0.1 µM, the “Affinity at hNET higher than at hDAT” value (hNET [9]; HEK cells) was 10 fold and the Hill coefficient (hNET [9]; HEK-hNET cells, [125I]-RTI-55 binding) was -1.04 ± 0.07. It also gave a Ki (hNET [9]; read-out: [125I]-RTI-55 binding Ki, HEK-hNET cells, mean ± SEM) of 0.365 ± 0.068 µM.

For `COC(=O)[C@@H]1CN(C)CC[C@@H]1c1ccc(Cl)cc1` [4-ARA-127, (1S, 3S, 4R)-4-(chlorophenyl)-3-[hydroxy(methyloxo)methyl]-1-methylpiperidin-1iium], the “E pKi (experimental pKi)” value (DAT) is listed as 5.48.

In the case of `COC(=O)[C@H]1[C@@H](OC(=O)c2ccccc2)C[C@@H]2CC[C@H]1O2` [8-Oxa-norcocaine, methyl (1R,2R,3S,5S)-3-benzoyloxy-8-oxabicyclo[3.2.1]octane-2-carboxylate], the “E pKi (experimental pKi)” value (DAT) is given as 5.81.

In the case of `COC(=O)[C@H]1[C@@H](OC(=O)c2ccccc2)C[C@@H]2CC[C@H]1N2C` [Cocaine, methyl (1R,2R,3S,5S)-3-benzoyloxy-8-methyl-8-azabicyclo[3.2.1]octane-2-carboxylate, reference compound], the Hill coefficient (hDAT [5]; HEK-hDAT cells) is reported as -0.81 ± 0.03 and the Hill coefficient (hSERT [8]; HEK-hSERT cells) is reported as -1.12 ± 0.03.

In the case of `OC1(c2ccc(Cl)cc2)c2ccccc2C2=NCCN21` (stereo not shown) [Mazindol, 5-(4-chlorophenyl)-2,3-dihydroimidazo[2,1-a]isoindol-5-ol], the “E pKi (experimental pKi)” value (DAT) is listed as 7.89.

For `COC(=O)[C@H]1[C@@H](c2ccc(F)cc2)C[C@@H]2CC[C@H]1N2C` [WIN 35,428, methyl (1R,2S,3S,5S)-3-(4-fluorophenyl)-8-methyl-8-azabicyclo[3.2.1]octane-2-carboxylate], the “E pKi (experimental pKi)” value (DAT) is listed as 7.70.
